ChEMBL document CHEMBL4152341, “Small Molecules Simultaneously Inhibiting p53-Murine Double Minute 2 (MDM2) Interaction and Histone Deacetylases (HDACs): Discovery of Novel Multitargeting Antitumor Agents” (J Med Chem, 2018)
The source made the active and inactive calls. The rule behind the calls is not given here.

Experiments:
[1] = system: HCT-116; assay: Antiproliferative activity against human HCT116 cells after 72 hrs by CCK8 assay; assay type: functional, cell-based; settings: HCT-116, 72 h
[2] = target: Histone deacetylase 1 (Homo sapiens, UniProt Q13547); assay: Inhibition of human recombinant full length HDAC1 using fluorogenic substrate 3 after 30 mins by fluorescence assay
Histone deacetylase 1, sequence (Q13547 whole entry): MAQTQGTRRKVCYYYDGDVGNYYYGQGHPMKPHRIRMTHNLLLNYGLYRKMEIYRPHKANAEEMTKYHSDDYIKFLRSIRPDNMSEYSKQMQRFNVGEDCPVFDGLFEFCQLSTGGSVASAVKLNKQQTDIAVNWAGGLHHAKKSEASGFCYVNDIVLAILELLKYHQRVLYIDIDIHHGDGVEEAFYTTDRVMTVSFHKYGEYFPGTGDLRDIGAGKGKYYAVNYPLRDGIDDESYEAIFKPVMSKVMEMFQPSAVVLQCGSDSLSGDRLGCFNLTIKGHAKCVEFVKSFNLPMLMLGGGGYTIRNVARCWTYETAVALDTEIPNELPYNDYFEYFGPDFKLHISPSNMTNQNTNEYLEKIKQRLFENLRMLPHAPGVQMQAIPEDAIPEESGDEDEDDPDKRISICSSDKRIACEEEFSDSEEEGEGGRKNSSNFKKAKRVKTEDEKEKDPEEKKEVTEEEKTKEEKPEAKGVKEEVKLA

[3] = target: E3 ubiquitin-protein ligase Mdm2 (Homo sapiens, UniProt Q00987); assay: Inhibition of MDM2 (unknown origin) preincubated for 30 mins by fluorescence polarization assay
E3 ubiquitin-protein ligase Mdm2, sequence (Q00987 whole entry): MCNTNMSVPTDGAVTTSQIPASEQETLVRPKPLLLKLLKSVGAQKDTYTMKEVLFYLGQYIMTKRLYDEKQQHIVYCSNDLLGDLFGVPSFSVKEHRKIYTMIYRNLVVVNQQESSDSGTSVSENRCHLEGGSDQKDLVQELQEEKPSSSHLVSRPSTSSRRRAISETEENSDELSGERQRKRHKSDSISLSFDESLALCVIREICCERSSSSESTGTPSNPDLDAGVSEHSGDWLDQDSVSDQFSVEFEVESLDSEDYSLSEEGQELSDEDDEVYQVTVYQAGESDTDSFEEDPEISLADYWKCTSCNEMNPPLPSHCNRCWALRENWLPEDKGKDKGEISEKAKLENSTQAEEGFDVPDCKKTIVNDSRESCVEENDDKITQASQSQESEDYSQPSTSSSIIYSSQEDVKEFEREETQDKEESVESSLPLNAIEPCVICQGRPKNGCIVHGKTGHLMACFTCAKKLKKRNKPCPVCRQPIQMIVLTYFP

[4] = system: A549; assay: Antiproliferative activity against human A549 cells after 72 hrs by CCK8 assay; assay type: functional, cell-based; settings: A549, 72 h
[5] = system: NCI-H1299; assay: Antiproliferative activity against human NCI-H1299 cells after 72 hrs by CCK8 assay; assay type: functional, cell-based; settings: NCI-H1299, 72 h
[6] = system: MCF7; assay: cells; settings: Homo sapiens, MCF7, 72 h
Description: Antiproliferative activity against human MCF7 cells after 72 hrs by CCK8 assay

[7] = target: Tumour suppressor p53/oncoprotein Mdm2 (Homo sapiens) (UniProt P04637+Q00987); assay: Inhibition of MDM2/P53 interaction in human A549 cells assessed as increase in p53 expression at 10 uM after 12 hrs by Western blot analysis; assay type: cell-based
Tumour suppressor p53/oncoprotein Mdm2 (Homo sapiens), sequence (P04637 whole entry, looked up): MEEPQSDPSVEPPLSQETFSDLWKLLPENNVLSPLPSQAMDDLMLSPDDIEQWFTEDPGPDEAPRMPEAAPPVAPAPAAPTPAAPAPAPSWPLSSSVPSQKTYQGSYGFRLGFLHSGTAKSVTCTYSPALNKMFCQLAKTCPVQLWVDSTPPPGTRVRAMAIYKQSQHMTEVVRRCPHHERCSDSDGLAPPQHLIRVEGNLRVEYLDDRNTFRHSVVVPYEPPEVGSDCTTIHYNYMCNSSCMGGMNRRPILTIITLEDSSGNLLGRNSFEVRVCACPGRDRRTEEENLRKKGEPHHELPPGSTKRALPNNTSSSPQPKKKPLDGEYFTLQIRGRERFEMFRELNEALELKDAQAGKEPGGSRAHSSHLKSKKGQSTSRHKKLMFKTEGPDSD
Tumour suppressor p53/oncoprotein Mdm2 (Homo sapiens), sequence (Q00987 whole entry, looked up): as the sequence (Q00987 whole entry) above

[8] = system: A549; assay: animal or person; assay type: functional, Homo sapiens; settings: Mus musculus, A549, po, read-out: TGI
[9] = system: A549; assay: cells; settings: Homo sapiens, A549, 48 h, read-out: Activity
[10] = system: A549; assay: cells; settings: Homo sapiens, A549, 48 h, read-out: Activity; remark: listed apart in the source

## CCOc1cc(C(C)(C)C)ccc1C1=NC(c2ccc(Cl)cc2)C(c2ccc(Cl)cc2)N1C(=O)NCCCCCCC(=O)Nc1ccccc1N (stereo not drawn)
[1]
  IC50: 10.1 µM
[2]
  IC50: 6.07 µM
[3]
  Ki: 0.62 µM
[4]
  IC50: 16 µM
[5]
  IC50: 17.5 µM
[6]
  IC50: > 100 µM

## CCOc1cc(C(C)(C)C)ccc1C1=NC(c2ccc(Cl)cc2)C(c2ccc(Cl)cc2)N1C(=O)N1CCN(CCCCC(=O)NO)CC1 (stereo not drawn)
[1]
  IC50: 5.21 µM
[2]
  IC50: 0.98 µM
[3]
  Ki: 0.17 µM
[4]
  IC50: 3.78 µM
[5]
  IC50: 12.9 µM
[6]
  IC50: 9.8 µM

## CCOc1cc(C(C)(C)C)ccc1C1=NC(c2ccc(Cl)cc2)C(c2ccc(Cl)cc2)N1C(=O)NCCCCCC(=O)NO (stereo not drawn)
[1]
  IC50: 7.15 µM
[2]
  IC50: 1.13 µM
[3]
  Ki: 0.28 µM
[4]
  IC50: 5.72 µM
[5]
  IC50: 10.4 µM
[6]
  IC50: 10.6 µM

## CCOc1cc(C(C)(C)C)ccc1C1=NC(c2ccc(Cl)cc2)C(c2ccc(Cl)cc2)N1C(=O)NCCCCC(=O)NO (stereo not drawn)
[1]
  IC50: 10.7 µM
[2]
  IC50: 2.92 µM
[3]
  Ki: 0.33 µM
[4]
  IC50: 9.34 µM
[5]
  IC50: 16.2 µM
[6]
  IC50: 12.8 µM

## CCOc1cc(C(C)(C)C)ccc1C1=NC(c2ccc(Cl)cc2)C(c2ccc(Cl)cc2)N1C(=O)N1CCN(Cc2ccc(C(=O)NO)cc2)CC1 (stereo not drawn)
[1]
  IC50: 2.03 µM
[2]
  IC50: 3.51 µM
[3]
  Ki: 0.26 µM
[4]
  IC50: 2.17 µM
[5]
  IC50: 3 µM
[6]
  IC50: 3.97 µM

## CCOc1cc(C(C)(C)C)ccc1C1=NC(c2ccc(Cl)cc2)C(c2ccc(Cl)cc2)N1C(=O)NCCCCCCCC(=O)NO (stereo not drawn)
[1]
  IC50: 5.03 µM
[2]
  IC50: 0.27 µM
[3]
  Ki: 0.34 µM
[4]
  IC50: 4.85 µM
[5]
  IC50: 9.06 µM
[6]
  IC50: 7.92 µM

## CCOc1cc(C(C)(C)C)ccc1C1=NC(c2ccc(Cl)cc2)C(c2ccc(Cl)cc2)N1C(=O)N1CCN(c2ncc(C(=O)NO)cn2)CC1 (stereo not drawn)
[1]
  IC50: 0.98 µM
[2]
  IC50: 0.31 µM
[3]
  Ki: 1.05 µM
[4]
  IC50: 1.97 µM
[5]
  IC50: 5.45 µM
[6]
  IC50: 3.46 µM

## CCOc1cc(C(C)(C)C)ccc1C1=NC(c2ccc(Cl)cc2)C(c2ccc(Cl)cc2)N1C(=O)N1CCN(CCCCCCCC(=O)NO)CC1 (stereo not drawn)
[1]
  IC50: 1.71 µM
[2]
  IC50: 0.41 µM
[3]
  Ki: 0.29 µM
[4]
  IC50: 2.01 µM
[5]
  IC50: 7.76 µM
[6]
  IC50: 4.83 µM

## CCOc1cc(C(C)(C)C)ccc1C1=N[C@H](c2ccc(Cl)cc2)[C@H](c2ccc(Cl)cc2)N1C(=O)N1CCN(CCCCCCC(=O)NO)CC1
[1]
  IC50: 10 µM
[2]
  IC50: 0.91 µM
[3]
  Ki: 10.9 µM
[4]
  IC50: 9.02 µM
[7]
  Activity: Active

## CCOc1cc(C(C)(C)C)ccc1C1=NC(c2ccc(Cl)cc2)C(c2ccc(Cl)cc2)N1C(=O)NCCCCCCC(=O)NO (stereo not drawn)
[1]
  IC50: 7.09 µM
[2]
  IC50: 0.89 µM
[3]
  Ki: 0.32 µM
[4]
  IC50: 5.97 µM
[5]
  IC50: 7.65 µM
[6]
  IC50: 7.23 µM

## CCOc1cc(C(C)(C)C)ccc1C1=NC(c2ccc(Cl)cc2)C(c2ccc(Cl)cc2)N1C(=O)NCCCCCCCC(=O)Nc1ccccc1N (stereo not drawn)
[1]
  IC50: 9.91 µM
[2]
  IC50: 3.59 µM
[3]
  Ki: 1.02 µM
[4]
  IC50: 15.2 µM
[5]
  IC50: 19.6 µM
[6]
  IC50: 20.3 µM

## COc1ccc(C2=N[C@@H](c3ccc(Cl)cc3)[C@@H](c3ccc(Cl)cc3)N2C(=O)N2CCNC(=O)C2)c(OC(C)C)c1 [NUTLIN-3]
[1]
  IC50: 9.07 to 9.97 µM
[2]
  IC50: > 100 µM
[4]
  IC50: 9.58 to 11.7 µM
[5]
  IC50: 19.8 µM
[8]
  inhibition in vivo at 100 mg/kg: 44%
[6]
  IC50: 8.5 µM
[9]
  viability at 1 µM: 89.8%
[10]
  viability at 5 µM: 83.3%
